# From US6399664B2, “Method of treating cancer, specifically leukemia, with ozone” (priority 1996, dated 2002)
# Assays:
# [1] = system: chronic myeloid leukemia (CML); assay: Conventional chemotherapy with Hydroxyurea of CML canine #198675
# [2] = system: normal human peripheral blood mononuclear cells (PBMC); assay: Normal human PBMC colony formation in methylcellulose medium; type: cell-based; details: ozone 5, 10, 15, 25 μg/ml
# Description: (§1) Ozone and ROI's were generated using medical grade oxygen from a high voltage corona discharge electrical ozone generator (Carpendale and Freeberg, 1991; Viebahn, 1994; FIG. 13). Liquid RPMI complete media suspension of K562 cell cultures or normal human whole blood (10 ml each treatment) was processed through a micro-bubbling device at several ozone concentrations (5, 10, 15, and 25 μg/ml). In addition, a 100% oxygen treated and non-processed control samples were also examined. After processing, complete blood counts were measured on all whole blood samples. Peripheral blood mononuclear cells (PBMC) were isolated using a standard density gradient of 1.077 g/ml and washed with Iscove's medium. Viability and cell counts were determined manually using a hemocytrometer and a 4% solution of Trypan blue. Cell concentrations were adjusted to 2.0×10^6 cells/ml. Cells were mixed in a 1:10 (v/v) ratio with methylcellulose medium with recombinant growth factors (#HCC-4434, StemCell Technologies Inc.) and plated to contain 2×10^5 cells per plate in duplicate for normal PBMCs and 2×10^4 for K562 cells. Plates were incubated at 37° C. in a CO2/O2 incubator. Colonies were scored on day 5, 8, 10 and day 14 according to the scoring criteria by StemCell Technologies. […]
# [3] = system: K562 leukemic cell line; assay: K562 colony formation and differentiation in methylcellulose medium; type: cell-based, human
# Description: Ozone and ROI's were generated using medical grade oxygen from a high voltage corona discharge electrical ozone generator (Carpendale and Freeberg, 1991; Viebahn, 1994; FIG. 13). Liquid RPMI complete media suspension of K562 cell cultures or normal human whole blood (10 ml each treatment) was processed through a micro-bubbling device at several ozone concentrations (5, 10, 15, and 25 μg/ml). In addition, a 100% oxygen treated and non-processed control samples were also examined. After processing, complete blood counts were measured on all whole blood samples. Peripheral blood mononuclear cells (PBMC) were isolated using a standard density gradient of 1.077 g/ml and washed with Iscove's medium. Viability and cell counts were determined manually using a hemocytrometer and a 4% solution of Trypan blue. Cell concentrations were adjusted to 2.0×10^6 cells/ml. Cells were mixed in a 1:10 (v/v) ratio with methylcellulose medium with recombinant growth factors (#HCC-4434, StemCell Technologies Inc.) and plated to contain 2×10^5 cells per plate in duplicate for normal PBMCs and 2×10^4 for K562 cells. Plates were incubated at 37° C. in a CO2/O2 incubator. Colonies were scored on day 5, 8, 10 and day 14 according to the scoring criteria by StemCell Technologies. The data results for cell viability, total colonies (proliferation) and individual colony cell types (differentiation) are presented in FIGS. 1-8.
# [4] = system: normal human peripheral blood leukocytes; assay: Effects of ozone on normal human leukocytes run in parallel; type: cell-based; details: at the concentrations used
# Description: as §1
# [5] = system: K562, Human CML cell line; assay: K562 viability by Trypan blue exclusion after ozone micro-bubbling; type: cell-based; details: ozone 5, 10, 15, 25 μg/ml
# Description: as §1
# [6] = system: chronic myeloid leukemia (CML); assay: Ozone/ROI therapy (iv injection, adjunct minor autohemotherapy) of CML canine #198675; type: in vivo
# Description: The attending veterinarian discussed euthanasia and the ozone or ROI therapy described in this invention with the owner under strict confidence. The owner and all attending veterinarians signed consent and confidentiality forms and the ozone or ROI therapy began on Sep. 23, 1997 and continued for 16 weeks. Prior to each weekly ozone or ROI treatment the patient's complete blood counts were measured using a Coulter Counter Hematology Analyzer (Coulter Electronics Canada Co.). The leukocyte differential counts were determined manually by the pathologist and recorded in FIG. 14. Ozone and ROI's were generated from a high voltage corona discharge electrical ozone generator using medical grade oxygen as shown in FIG. 13. Ozone/oxygen gas (30 to 60 ml) was injected intra-venously (iv) through a sterile catheter needle (Abbocath-T, 22 g×11⁄4 in.; Abbott Ireland) inserted in the leg vein of the mammal (canine #198675) with a sterile extension set (79 cm, […], Abbott Ireland) attached to the syringe containing the ozone ROI gas mixture. The ozone/oxygen gas mixture was slowly injected over a 10 to 20 minute period to allow maximum gas absorption. The secondary or adjunct to the preferred route of administration was minor autohemotherapy (minor AHT) where heparinized whole blood (7 ml each treatment) was gently mixed in a disposable syringe or devise with increasing doses of ozone to a maximum of 25 ml at 34 to 42 μg/ml (dose is species specific). The blood gas mixture was allowed to equilibrate at room temperature for 1 to 5 minutes with intermittent mixing. The excess gas was evacuated prior to intramuscular (im) or subcutaneous (sc) injection of the ozonated blood at several locations. Patients were accessed prior to, during and post treatment by blood tests, clinical response, and biopsy when appropriate.
# [7] = system: cytokine levels such as IL-1, IL-2 and IFN-γ; details: in humans; cited from earlier work
# [8] = system: cultured human cancerous cell lines derived from lung, breast and uterine solid tumours; details: little damage to normal cell growth; cited from earlier work
# [9] = 500 mg twice daily for approximately one year
# [10] = 16 μg/ml ozone injected, up to 197 ug total, in vivo concentration less than 0.25 μg/ml
# [11] = 28 to 42 μg/ml ozone injected, up to 2100 ug total, in vivo concentration 0.5 to 1.5 μg/ml
compound,measurement,setting,value
NC(=O)NO [Hydroxyurea],RBC counts,[1]; [9],increased with time
same,WBC levels relative to normal canine range of 6.1 to 17.4×10^9 cells per liter,[1]; [9],never returned to the normal canine range
same,side effects (clinical presentation),[1]; [9],"depression, lethargy, severe to mild diarrhea, anorexia, vomiting, weight loss, occasionally vaginal bleeding, abdominal pain and splenomegaly"
same,total WBC counts,[1]; [9],decrease
same,time of entering blast crisis after cessation of conventional chemotherapy,[1]; after one year of chemotherapy,1.5 months
O=[O+][O-] [ozone],effects in the colonies from normal human PBMC,[2],no deleterious effects
same,"colony differentiation, dose response",[3]; increasing concentrations of ozone,increased colony differentiation into normal cells
same,"production of normal hematopoietic colonies (CFU-E, BFU-E, GM-CFU, CFU-GEMM) from K562","[3]; ozone 5, 10, 15, 25 μg/ml",stimulates the production of normal hematopoietic colonies
same,proliferation of leukemia derived colonies,"[3]; ozone 5, 10, 15, 25 μg/ml, total colonies",inhibits the proliferation
same,effects on normal human leukocytes,[4],no significant deleterious effects
same,viability of malignant cells,[5],reduction in the viability
same,effect on canine hematopoietic system,[6]; [10],significant activation
same,production of leukemic cells,[6]; [10],significant increase
same,progression of CML (total WBC and RBC counts),[6]; 16 week treatment,reversed the progression of CML
same,effect on canine hematopoietic system,[6]; [11],significant inhibition
same,production of leukemic cells,[6]; [11],significant reduction
same,patient's quality of life,"[6]; CML canine #198675, weekly ozone/ROI treatment, 16 weeks",increase
same,diarrhea,"[6]; CML canine #198675, diarrhea not related to CML","slight improvement in the diarrhea, although only temporary"
same,vomiting,[6]; after the first two weeks of treatment,decrease
same,ability of the immature stem cell to differentiate into the different blood cell types,"[6]; ozone dose dependent, 16 to 42 μg/ml generated ozone concentration",improved
same,total WBC counts,[6]; with the increase of the internal ozone concentration in the mammal,decrease
same,"cytokine levels such as IL-1, IL-2 and IFN-γ",[7],increases cytokine levels
same,growth of cultured human cancerous cell lines,[8],selectively inhibit the growth
